Measured values reported in patent publication US6476242B1 (Bristol-Myers Squibb Company, priority 1997, dated 2002).
Several values for one entry are separate records, joined by “and”; a condition that tells them apart may be missing. Equal entries are not always repeated.

Legend:
[1] = test system: Tubulin; assay: Tubulin Data (Table 1); format: biochemical; conditions: ratio analog/paclitaxel for tubulin data
[2] = test system: 116/VM46; assay: 116/VM46 activity, resistant line (Table 1); format: cell-based; conditions: for IC50: 116/VM46 cells, unit inferred; for R/S ratio: ratio 116/VM46 (resistant) to HCT116 (sensitive)
[3] = test system: HCT116; assay: HCT116 activity (Table 1); format: cell-based; conditions: for IC50: HCT116 cells, unit inferred; for anal/PT (beside HCT116 and 116/VM46): ratio analog/paclitaxel in HCT116

SMILES: CSC(=S)O[C@@]12CO[C@@H]1C[C@H](O)[C@@]1(C)C(=O)[C@H](OC(C)=O)C3=C(C)[C@@H](OC(=O)[C@H](O)[C@@H](NC(=O)c4ccccc4)c4ccccc4)C[C@@](O)([C@@H](OC(=O)c4cccc(N=[N+]=[N-])c4)[C@H]21)C3(C)C [MC-134-239, 2-(m-azidobenzoyl-4-xanthyl)PT]
- anal/PT (beside Tubulin Data) [1]: 42
- IC50 [2]: 135 nM
- R/S ratio [2]: 8.03
- IC50 [3]: 16.8 nM
- anal/PT (beside HCT116 and 116/VM46) [3]: 11.02

SMILES: COC(=O)O[C@@]12CO[C@@H]1C[C@H](O)[C@@]1(C)C(=O)[C@H](OC(C)=O)C3=C(C)[C@@H](OC(=O)[C@H](O)[C@@H](NC(=O)c4ccccc4)c4ccccc4)C[C@@](O)([C@@H](OC(=O)c4cccc(OC)c4)[C@H]21)C3(C)C [MC-134-61, 2-(m-methoxybenzoyl)-4-MeOCO-PT]
- anal/PT (beside Tubulin Data) [1]: 0.9
- R/S ratio [2]: 129
- IC50 [3]: 6.7 nM and 4.4 nM

SMILES: CC(=O)O[C@H]1C(=O)[C@@]2(C)[C@H]([C@H](OC(=O)c3ccccc3)[C@]3(O)C[C@H](OC(=O)[C@H](O)[C@@H](NC(=O)c4ccccc4)c4ccccc4)C(C)=C1C3(C)C)[C@]1(OC(C)=O)CO[C@@H]1C[C@@H]2O [paclitaxel (PT), paclitaxel, reference compound]
- anal/PT (beside Tubulin Data) [1]: 1
- IC50 [2]: 203 nM
- IC50 [3]: 2 nM

SMILES: COc1cccc(C(=O)O[C@H]2[C@@H]3[C@]4(OC(=S)SC)CO[C@@H]4C[C@H](O)[C@@]3(C)C(=O)[C@H](OC(C)=O)C3=C(C)[C@@H](OC(=O)[C@H](O)[C@@H](NC(=O)c4ccccc4)c4ccccc4)C[C@]2(O)C3(C)C)c1 [MC-134-229, 2-(m-methoxybenzoyl-4-xanthyl)PT]
- anal/PT (beside Tubulin Data) [1]: 8.9
- IC50 [2]: 53.2 nM
- R/S ratio [2]: 11.32
- IC50 [3]: 4.7 nM
- anal/PT (beside HCT116 and 116/VM46) [3]: 3.08

SMILES: CC(=O)O[C@H]1C(=O)[C@@]2(C)[C@H]([C@H](OC(=O)c3cccc(N=[N+]=[N-])c3)[C@]3(O)C[C@H](OC(=O)[C@H](O)[C@@H](NC(=O)c4ccccc4)c4ccccc4)C(C)=C1C3(C)C)[C@]1(OC(=O)C3CC3)CO[C@@H]1C[C@@H]2O [MC-134-91, 2-m-azido-4-cyclopropylCO-PT]
- anal/PT (beside Tubulin Data) [1]: 0.08
- IC50 [2]: 28 nM and < 16 nM
- R/S ratio [2]: 10.4

SMILES: CC(=O)O[C@H]1C(=O)[C@@]2(C)[C@H]([C@H](OC(=O)c3cccc(Cl)c3)[C@]3(O)C[C@H](OC(=O)[C@H](O)[C@@H](NC(=O)c4ccccc4)c4ccccc4)C(C)=C1C3(C)C)[C@]1(OC(=O)C3CC3)CO[C@@H]1C[C@@H]2O [MC-134-92, 2-m-chloro-4-cyclopropylCO-PT]
- anal/PT (beside Tubulin Data) [1]: 0.06
- IC50 [2]: 30 nM and < 16 nM
- R/S ratio [2]: 18
- IC50 [3]: 1.7 nM and 1.1 nM

SMILES: COc1ccc(OC)c(C(=O)O[C@H]2[C@@H]3[C@]4(OC(=O)C5CC5)CO[C@@H]4C[C@H](O)[C@@]3(C)C(=O)[C@H](OC(C)=O)C3=C(C)[C@@H](OC(=O)[C@H](O)[C@@H](NC(=O)c4ccccc4)c4ccccc4)C[C@]2(O)C3(C)C)c1 [MC-134-250, 2-(2,5-dimethoxybz)-4-cyclopropylCO-PT]
- anal/PT (beside Tubulin Data) [1]: 0.5
- IC50 [2]: 45.1 nM
- R/S ratio [2]: 25.06
- IC50 [3]: 1.8 nM
- anal/PT (beside HCT116 and 116/VM46) [3]: 0.78

SMILES: CSC(=S)O[C@@]12CO[C@@H]1C[C@H](O)[C@@]1(C)C(=O)[C@H](OC(C)=O)C3=C(C)[C@@H](OC(=O)[C@H](O)[C@@H](NC(=O)c4ccccc4)c4ccccc4)C[C@@](O)([C@@H](OC(=O)c4cccc(Cl)c4)[C@H]21)C3(C)C [MC-134-238, 2-(m-chlorobenzoyl-4-xanthyl)PT]
- anal/PT (beside Tubulin Data) [1]: 3.5
- IC50 [2]: 58.6 nM
- R/S ratio [2]: 10.34
- IC50 [3]: 5.7 nM
- anal/PT (beside HCT116 and 116/VM46) [3]: 3.72

SMILES: COC(=O)OC12COC1CC(O)C1(C)C(=O)C(OC(C)=O)C3=C(C)C(OC(=O)C(O)C(NC(=O)c4ccccc4)c4ccccc4)CC(O)(C(OC(=O)c4cccc(Cl)c4)C21)C3(C)C (stereo not shown) [MC-134-100, 2-m-chloro-4-MeOCO-PT]
- anal/PT (beside Tubulin Data) [1]: 0.4
- IC50 [2]: 82 nM
- R/S ratio [2]: 37
- IC50 [3]: 2.2 nM

SMILES: CC(=O)OC1C(=O)C2(C)C(O)CC3OCC3(OC(=O)C3CC3)C2C(OC(=O)c2ccc(F)cc2F)C2(O)CC(OC(=O)C(O)C(NC(=O)c3ccccc3)c3ccccc3)C(C)=C1C2(C)C (stereo not shown) [MC-134-248, 2-(2,4-difluorobz)-4-cyclopropylCO-PT]
- anal/PT (beside Tubulin Data) [1]: 0.2
- IC50 [2]: 8.2 nM
- R/S ratio [2]: 3.86
- IC50 [3]: 2.1 nM
- anal/PT (beside HCT116 and 116/VM46) [3]: 1.03

SMILES: CC(=O)OC1C(=O)C2(C)C(O)CC3OCC3(OC(=O)C3CC3)C2C(OC(=O)c2ccc(Cl)cc2Cl)C2(O)CC(OC(=O)C(O)C(NC(=O)c3ccccc3)c3ccccc3)C(C)=C1C2(C)C (stereo not shown) [MC-134-247, 2-(2,4-dichlorobz)-4-cyclopropylCO-PT]
- anal/PT (beside Tubulin Data) [1]: 0.7
- IC50 [2]: 76.6 nM
- R/S ratio [2]: 30.64
- IC50 [3]: 2.5 nM
- anal/PT (beside HCT116 and 116/VM46) [3]: 1.09

SMILES: COc1cccc(C(=O)O[C@H]2[C@@H]3[C@]4(OC(=O)C5CC5)CO[C@@H]4C[C@H](O)[C@@]3(C)C(=O)[C@H](OC(C)=O)C3=C(C)[C@@H](OC(=O)[C@H](O)[C@@H](NC(=O)c4ccccc4)c4ccccc4)C[C@]2(O)C3(C)C)c1 [MC-134-45, 2-(m-methoxybz)-4-cyclopropylCO-PT]
- anal/PT (beside Tubulin Data) [1]: 1.3
- IC50 [2]: 40 nM
- R/S ratio [2]: 20
- IC50 [3]: 2 nM

SMILES: COC(=O)O[C@@]12CO[C@@H]1C[C@H](O)[C@@]1(C)C(=O)[C@H](OC(C)=O)C3=C(C)[C@@H](OC(=O)[C@H](O)[C@@H](NC(=O)c4ccccc4)c4ccccc4)C[C@@](O)([C@@H](OC(=O)c4cccc(C)c4)[C@H]21)C3(C)C [MC-134-68, 2-(m-methylbenzoyl)-4-MeOCO-PT]
- anal/PT (beside Tubulin Data) [1]: 0.8
- IC50 [2]: 44 nM
- R/S ratio [2]: 21
- IC50 [3]: 2.1 nM

SMILES: CC(=O)OC1C(=O)C2(C)C(O)CC3OCC3(OC(=O)c3cccc(Cl)c3)C2C(OC(=O)c2cccc(Cl)c2)C2(O)CC(OC(=O)C(O)C(NC(=O)c3ccccc3)c3ccccc3)C(C)=C1C2(C)C (stereo not shown) [MC-134-277, 2-(m-Cl-benzoyl)-4-(m-Cl-benzoyl)PT]
- anal/PT (beside Tubulin Data) [1]: 144
- IC50 [2]: 2460 nM
- IC50 [3]: 2430 nM
